ChEMBL document CHEMBL2311345, “Facile synthesis and characterization of novel pyrazole-sulfonamides and their inhibition effects on human carbonic anhydrase isoenzymes” (Bioorg Med Chem, 2013)

Key:
Carbonic anhydrase 1 = Carbonic anhydrase 1 (Homo sapiens, UniProt P00915); test: Un-competitive inhibition of human erythrocytes carbonic anhydrase 1 esterase activity by Lineweaver-Burk plot analysis
Carbonic anhydrase 2 = Carbonic anhydrase 2 (Homo sapiens, UniProt P00918); test: Un-competitive inhibition of human erythrocytes carbonic anhydrase 2 esterase activity by Lineweaver-Burk plot analysis

Chain of Carbonic anhydrase 1 (P00915 whole entry): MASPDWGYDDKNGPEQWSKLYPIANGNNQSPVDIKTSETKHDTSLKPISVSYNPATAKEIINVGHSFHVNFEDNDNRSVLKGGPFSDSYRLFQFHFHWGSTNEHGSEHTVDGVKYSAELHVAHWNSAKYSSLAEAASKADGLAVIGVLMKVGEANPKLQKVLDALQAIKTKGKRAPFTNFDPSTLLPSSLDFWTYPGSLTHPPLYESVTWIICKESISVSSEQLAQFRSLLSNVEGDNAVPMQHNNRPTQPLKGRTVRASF

| Ki (Carbonic anhydrase 1) | Ki (Carbonic anhydrase 2) | SMILES |
| --- | --- | --- |
| 62.3 nM | – | CC(=O)/C(=N\Nc1cccc(-n2nc(C(=O)Nc3ccc(S(N)(=O)=O)cc3)c(C(=O)O)c2-c2ccccc2)c1)C(=O)c1ccccc1 |
| – | 12.4 nM | NS(=O)(=O)c1ccc(NC(=O)c2nn(-c3cccc(/N=N/c4c(O)ccc5ccccc45)c3)c(-c3ccccc3)c2C(=O)O)cc1 |
